{"source": "patent US20250073250A1", "about": "“Improved synthesis of lysine acetylsalicylate - Glycine particles” (AspiAir GmbH, priority 2022, published 2025)", "assay_type_in_all_cases": "physicochemical", "key": {"[1]": {"assay": "Particle size distribution (PSD) by laser diffraction", "conditions": "for Dv10 / Dv50 / Dv90: volume-based", "procedure": "Unless mentioned otherwise, the particle size values provided herein (either measured or calculated/derived from measured values) refer to particle diameters and were determined using a laser diffraction device, and its related evaluation software (here, for instance, a Mastersizer® device from Malvern Instruments Ltd.); all laser diffraction measurements complied with ISO-13320 standards. Where referring to the particle size measurements, all percentages provided herein (such as ‘at least 90% of the particles have a particle size of . . . ’) are to be understood as volume-percentages. […] Where available, three or more batches of the substances were tested, and mean values of their PSD-data obtained."}, "[2]": {"assay": "Manual dissolution of 1000 mg LASAG in 8 mL glass vial with 5 mL water for injection", "conditions": "1000 mg in 5 mL water for injection, 8 mL vial", "source_text": "As mentioned above, by controlling the particle size of the LASAG, it is possible to control parameters such as the dissolution speed (also referred to as dissolution rate). […] Special precautionary measures” that the reconstituted solution should preferably be filtered with a 5 μm filter before its application, as such indicating potential issues with (quick) dissolution. Especially, when considering that LASAG is inter alia employed in the treatment of myocardial infarction, i.e., an acute health crisis where time is of critical importance, a faster, more readily occurring dissolution of the LASAG used, can represent a clinically relevant advantage.\nAn amount of 5 mL water for injection purposes was injected through the sealing stopper over the course of about 25-30 seconds, the needle then removed, and the vial shaken, or swirled, manually until complete dissolution (no residual solids visible to the human eye). The same test was performed with a commercially available Aspirin® i.v. vial. Each test was repeated at least 3 times per type of LASAG. This test and the resulting dissolution behaviour are considered similar to what is likely to be observed by, for instance, paramedics in an ambulance or medical staff in hospitals upon dissolving the dry LASAG particles in pre-filled vials by adding water for injection purposes and shaking manually. […]"}, "[3]": {"assay": "Specific surface area by BET gas adsorption", "source_text": "Without wishing to be bound by theory, it seems possible that not only the smaller median particle size of the LASAG according to the present invention is responsible for its faster dissolution but also its higher specific surface area."}, "[4]": {"assay": "Dissolution on horizontal shaker", "conditions": "1000 mg in 5 mL water, 25 mL test tube, horizontal shaker 1055 rpm, 5 s intervals", "procedure": "An amount of 5 mL water for injection purposes was added, and the vial shaken in intervals of 5 seconds at 1055 rpm until complete dissolution (no residual solids visible to the human eye). The same test was performed with a commercially available Aspirin® i.v. vial. Each test was repeated at least 3 times per type of LASAG."}, "[5]": {"assay": "Glass adhesion in 8 mL glass vial (gravimetric)", "procedure": "After opening the vial and emptying out any non-adhered powder by simple gravitational spill, the vial with the adhered particles inside is weighed again, to thereby gravimetrically determine the weight of the adhered particles. Low glass adhesion facilitates handling of the vials (e.g., better visibility into the vial), and ensures that the complete intended dose is dissolved upon adding water to the vial (rather than, for instance, some material sticking to the upper end of the vial, near the stopper, where the water, that is added into the vial via injection through a needle, may not reach). […] On at least five consecutive days, the vial was manually moved, or rotated, once daily around all its axes to properly disperse the LASAG particles and allow them to coat the inner glass surface. After seven days, the vials were emptied by simply turning them upside down and allowing all non-adhering powder to spill out, or fall out, under gravity, followed by firmly tapping the vial five times onto a solid surface. No noteworthy adhesion to the stopper was observed. The weight of the remainder, i.e., the weight of the LASAG powder still sticking to the glass wall inside the vial after emptying, was determined gravimetrically. The same test was performed with a commercially available Aspirin® i.v. vial."}, "[6]": {"assay": "Storage stability in dry state in aluminium-lined polyethylene bags", "procedure": "At 5±3° C. […] After continuation of the cold storage stability study for a further 12 months, this stability finding is reconfirmed, with the extrapolated value being increased to from 70.9±3.5 months to 200±5 months."}, "[7]": {"assay": "Stability in aqueous solution (salicylic acid content by HPLC)", "procedure": "Due to its instability in water, LASAG is commonly used as a dry powder, and specifically as a dry powder for reconstitution; in other words, an aqueous solution thereof is not necessarily meant to be stored for extended periods of time but instead is prepared freshly prior to each use. Stability in aqueous solution is nonetheless an important feature for users, for instance, in order to know how long a prepared solution can still be used; a content of ≤1.5 wt.-% of the LASAG-degradant salicylic acid (SA) in a solution is typically considered acceptable. […] In between sample time points, the vials were kept closed.\nThe following time points were measured:\nFor the HPLC-analysis, an Agilent Zorbax SB-C18 column was used (4.6×250 mm, 5 μm) at 22° C. with isocratic elution over 40 minutes at an eluent flow rate of 1 mL/min. The eluent was an 80 mM ammonium acetate/acetonitrile solution (60:40) prepared by dissolving 4 g ammonium acetate in 600 mL HPLC-grade water, adjusting the pH to 2.0 using trifluoroacetic acid, then adding 400 mL acetonitrile and homogenising the mixture. The injected sample volume was 10 μL. A UV-detector was used at 237 nm to analyse the samples."}, "[8]": {"conditions": "listed as LASAG 2 (batch in clinical study)"}}, "note": "Where two headings read alike, the source gives them in different places.", "data": [{"smiles": "CC(=O)Oc1ccccc1C(=O)O.NCC(=O)O.NCCCCC(N)C(=O)O", "note": "(racemic) [LASAG 2, lysine acetylsalicylate⋅glycine]", "values": [{"measurement": "1st max. of particle size distribution", "setting": "[1]", "result": 20.4, "unit": "μm"}, {"measurement": "1st max. of particle size distribution", "setting": "[1]; [8]", "result": 18.7, "unit": "μm"}, {"measurement": "Dv10", "setting": "[1]", "result": 4.2, "unit": "μm"}, {"measurement": "Dv50", "setting": "[1]", "result": 18.4, "unit": "μm"}, {"measurement": "Dv90", "setting": "[1]", "result": 53.3, "unit": "μm"}, {"measurement": "Dv10", "setting": "[1]; [8]", "result": 3.8, "unit": "μm"}, {"measurement": "Dv50", "setting": "[1]; [8]", "result": 16.3, "unit": "μm"}, {"measurement": "Dv90", "setting": "[1]; [8]", "result": 40.4, "unit": "μm"}, {"measurement": "Dv90", "setting": "[1]; listed as LASAG of the present invention", "result": "about 50 μm"}, {"measurement": "shaking/swirling motions until complete dissolution", "setting": "[2]; manual", "result": "3-5"}, {"measurement": "time from removing the needle until complete dissolution", "setting": "[2]; manual shaking/swirling", "result": "15 to 30", "unit": "s"}, {"measurement": "specific surface area", "setting": "[3]", "result": "2.4±0.1", "unit": "m^2/g"}, {"measurement": "time until complete dissolution", "setting": "[4]", "result": "18.3 ± 2.9", "unit": "s"}, {"measurement": "weight remaining in the vial (adhering to glass)", "setting": "[5]; 1000 mg in 8 mL vial, after seven days, emptied and tapped", "result": "5.12 ± 0.35", "unit": "mg"}, {"measurement": "glass adhesion per inner glass surface", "setting": "[5]; inner glass surface approx. 29 cm^2", "result": "about 0.177 mg/cm^2"}, {"measurement": "Time until reaching salicylic acid threshold of 1.5%", "setting": "[6]; 5±3° C., extrapolated after continuation of study for a further 12 months", "result": "200±5", "unit": "months"}, {"measurement": "Time until reaching salicylic acid threshold of 1.5%", "setting": "[6]; 5 ± 3° C., n = 3, extrapolated, listed as LASAG according to present invention", "result": "70.9 ± 3.5", "unit": "months"}, {"measurement": "Time until reaching salicylic acid threshold of 1.5%", "setting": "[6]; 25 ± 2° C. 60 ± 5% r.h., n = 3", "result": "10.3 ± 2.0", "unit": "months"}, {"measurement": "Time until reaching salicylic acid threshold of 1.5%", "setting": "[6]; 30 ± 2° C. 65 ± 5% r.h., n = 3", "result": "3.5 ± 1.2", "unit": "months"}, {"measurement": "Time until reaching salicylic acid threshold of 1.5%", "setting": "[6]; 40 ± 2° C. 75 ± 5% r.h., n = 3", "result": "0.2 ± 0.0", "unit": "months"}, {"measurement": "time at which solution exceeds 1.5 wt.-% salicylic acid content", "setting": "[7]; 1.0 g in 5.0 mL water, room temperature (20±5° C.)", "result": "about 1 h"}, {"measurement": "changes in colour or clarity of solution", "setting": "[7]; over time range and storage conditions tested", "result": "None"}]}]}
